How the values were obtained:
[1] = target: T1, human N-type calcium channel (Homo sapiens, UniProt Q00975); format: cell-based
T1 construct: expressed in transfected cells; host or cells: HEK 293 (human embryonic kidney) cells

[2] = target: T1, human N-type calcium channel; format: cell-based; remark: listed apart in the source
Sprague-Dawley male rats [3] = conditions: rat, in vivo, iv
Sprague-Dawley male rats [4] = conditions: rat, in vivo
Sprague-Dawley male rats [5] = conditions: rat, in vivo; remark: listed apart in the source
ICR mice [6] = conditions: mouse, in vivo
ICR mice [7] = conditions: mouse, in vivo; remark: listed apart in the source
ICR mice [8] = conditions: mouse, in vivo; remark: listed apart in the source
ICR mice [9] = conditions: mouse, in vivo; remark: listed apart in the source
Sprague-Dawley male rats [10] = conditions: rat, in vivo; remark: listed apart in the source
ICR mice [11] = conditions: mouse, in vivo; remark: listed apart in the source
ICR mice [12] = conditions: mouse, in vivo, ip

T1 sequence (Q00975 whole entry, looked up): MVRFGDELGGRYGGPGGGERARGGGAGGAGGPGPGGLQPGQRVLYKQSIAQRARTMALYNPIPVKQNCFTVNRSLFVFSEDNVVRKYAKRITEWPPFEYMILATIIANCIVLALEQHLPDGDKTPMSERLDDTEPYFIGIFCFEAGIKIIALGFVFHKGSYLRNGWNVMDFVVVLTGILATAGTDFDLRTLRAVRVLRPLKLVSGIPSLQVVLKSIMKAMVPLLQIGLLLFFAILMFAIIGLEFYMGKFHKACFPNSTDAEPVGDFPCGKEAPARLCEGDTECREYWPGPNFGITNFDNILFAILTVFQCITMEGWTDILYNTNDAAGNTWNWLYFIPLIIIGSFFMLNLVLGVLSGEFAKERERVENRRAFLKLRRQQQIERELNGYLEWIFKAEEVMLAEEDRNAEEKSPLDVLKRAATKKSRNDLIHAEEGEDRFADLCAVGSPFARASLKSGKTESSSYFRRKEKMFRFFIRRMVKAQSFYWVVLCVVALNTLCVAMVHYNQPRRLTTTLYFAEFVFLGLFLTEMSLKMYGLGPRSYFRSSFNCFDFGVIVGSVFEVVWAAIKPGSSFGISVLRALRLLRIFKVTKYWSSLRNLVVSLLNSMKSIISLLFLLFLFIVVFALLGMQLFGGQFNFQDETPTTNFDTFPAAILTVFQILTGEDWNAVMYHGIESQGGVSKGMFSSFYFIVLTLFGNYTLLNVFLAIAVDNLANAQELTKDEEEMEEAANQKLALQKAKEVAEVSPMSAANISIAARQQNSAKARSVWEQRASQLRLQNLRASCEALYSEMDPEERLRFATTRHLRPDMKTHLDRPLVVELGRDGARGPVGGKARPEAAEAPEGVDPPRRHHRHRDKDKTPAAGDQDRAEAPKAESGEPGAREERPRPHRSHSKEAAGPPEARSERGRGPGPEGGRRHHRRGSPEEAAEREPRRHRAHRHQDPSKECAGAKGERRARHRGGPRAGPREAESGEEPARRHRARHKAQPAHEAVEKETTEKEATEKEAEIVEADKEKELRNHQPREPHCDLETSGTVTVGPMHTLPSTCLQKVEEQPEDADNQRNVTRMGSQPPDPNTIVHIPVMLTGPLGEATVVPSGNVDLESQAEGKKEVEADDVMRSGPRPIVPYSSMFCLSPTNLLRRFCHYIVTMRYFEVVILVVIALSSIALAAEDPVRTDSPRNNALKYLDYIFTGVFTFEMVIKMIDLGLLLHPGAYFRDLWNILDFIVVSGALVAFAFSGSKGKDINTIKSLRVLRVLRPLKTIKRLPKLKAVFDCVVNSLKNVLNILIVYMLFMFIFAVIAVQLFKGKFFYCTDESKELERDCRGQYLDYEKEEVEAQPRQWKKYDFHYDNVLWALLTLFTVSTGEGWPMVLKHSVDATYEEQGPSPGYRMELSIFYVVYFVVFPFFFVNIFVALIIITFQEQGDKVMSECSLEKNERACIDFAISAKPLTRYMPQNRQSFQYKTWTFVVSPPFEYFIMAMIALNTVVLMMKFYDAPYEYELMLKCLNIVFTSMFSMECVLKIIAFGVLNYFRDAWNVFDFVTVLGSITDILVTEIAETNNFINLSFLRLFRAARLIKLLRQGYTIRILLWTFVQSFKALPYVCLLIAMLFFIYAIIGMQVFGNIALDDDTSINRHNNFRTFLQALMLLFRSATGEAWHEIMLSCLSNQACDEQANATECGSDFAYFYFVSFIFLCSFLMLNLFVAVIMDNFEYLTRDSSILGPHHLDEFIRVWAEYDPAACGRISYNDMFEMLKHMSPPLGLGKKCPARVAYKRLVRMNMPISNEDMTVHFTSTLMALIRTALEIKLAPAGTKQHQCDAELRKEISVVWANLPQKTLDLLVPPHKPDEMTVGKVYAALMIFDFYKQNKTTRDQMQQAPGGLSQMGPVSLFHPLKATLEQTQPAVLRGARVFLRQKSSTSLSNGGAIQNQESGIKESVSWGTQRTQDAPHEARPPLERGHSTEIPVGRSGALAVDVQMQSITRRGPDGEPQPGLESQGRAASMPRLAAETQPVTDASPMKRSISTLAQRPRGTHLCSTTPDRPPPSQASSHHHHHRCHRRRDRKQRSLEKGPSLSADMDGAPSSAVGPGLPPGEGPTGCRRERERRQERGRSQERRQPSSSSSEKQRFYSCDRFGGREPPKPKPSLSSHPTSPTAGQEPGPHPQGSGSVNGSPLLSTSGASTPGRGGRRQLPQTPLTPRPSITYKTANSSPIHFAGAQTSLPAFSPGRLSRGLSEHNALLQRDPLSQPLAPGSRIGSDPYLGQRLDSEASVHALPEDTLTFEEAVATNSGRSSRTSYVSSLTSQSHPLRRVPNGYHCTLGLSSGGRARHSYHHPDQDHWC

Compound | Calcium channel blocking activity [1] | Recovery relative to MVIIA [2] [fold] | Arterial pressure after lapse of time (Sprague-Dawley male rats [3]) | Mean arterial pressure (MAP) time course (Sprague-Dawley male rats [3]) | Current-voltage curve [1] | IC50 ([1]; read-out: IC50 from dose-inhibition curve) [nM] | Dissociation on washout [2] | 50% withdrawal threshold, mechanical allodynia (Sprague-Dawley male rats [4]) | Analgesic effect on warm allodynia (Sprague-Dawley male rats [5]) | Cumulative pain response, substance P-induced (ICR mice [6]) | Withdrawal latency, plantar test (ICR mice [7]) | Withdrawal latency, tail-flick test (ICR mice [8]) | Cumulative pain response, formalin test (ICR mice [9]) | Dose dependence of analgesic effect, formalin test (ICR mice [9]) | Pain behaviors in the second phase, formalin test (ICR mice [9]) | Analgesic effect on cold allodynia (Sprague-Dawley male rats [10]) | Cumulative pain response, glutamate-induced (ICR mice [11]) | Count of writhing responses (ICR mice [12])
CKGKGAKCSRIAYNCCTGSCRSGKC-NH2 [Chimera-MFMM] | significant calcium channel blocking activity | ~2 |  |  |  |  |  |  |  |  |  |  |  |  |  |  |  | 
CSCC[C@@H]1NC(=O)[C@H](CC(C)C)NC(=O)[C@H](CCCNC(=N)N)NC(=O)[C@H](CO)NC(=O)[C@@H]2CSSC[C@@H]3NC(=O)[C@H](CO)NC(=O)CNC(=O)[C@H]([C@@H](C)O)NC(=O)[C@H](CSSC[C@H](N)C(=O)N[C@@H](CCCCN)C(=O)NCC(=O)N[C@@H](CCCCN)C(=O)NCC(=O)N[C@@H](C)C(=O)N[C@@H](CCCCN)C(=O)N2)NC(=O)[C@H](CSSC[C@@H](C(N)=O)NC(=O)[C@H](CCCCN)NC(=O)CNC(=O)[C@H](CO)NC(=O)[C@H](CCCNC(=N)N)NC3=O)NC(=O)[C@H](CC(=O)O)NC(=O)[C@H](Cc2ccc(O)cc2)NC1=O [MVIIA, CKGKGAKCSRLMYDCCTGSCRSGKC-NH2] |  |  | around 60 mmHg | sharp decrease in MAP at an initial stage and slow recovery in MAP |  |  |  |  |  |  |  |  |  |  |  |  |  | 
CC[C@H](C)[C@@H]1NC(=O)[C@H](CCCNC(=N)N)NC(=O)[C@H](CO)NC(=O)[C@@H]2CSSC[C@@H]3NC(=O)[C@H](CO)NC(=O)CNC(=O)[C@H]([C@@H](C)O)NC(=O)[C@H](CSSC[C@H](N)C(=O)N[C@@H](CCCCN)C(=O)NCC(=O)N[C@@H]([C@@H](C)O)C(=O)NCC(=O)N[C@@H](CCCCN)C(=O)N[C@@H](CO)C(=O)N2)NC(=O)[C@H](CSSC[C@@H](C(N)=O)NC(=O)[C@H](CCCCN)NC(=O)CNC(=O)[C@H](CO)NC(=O)[C@H](CCCNC(=N)N)NC3=O)NC(=O)[C@H](CC(N)=O)NC(=O)[C@H](Cc2ccc(O)cc2)NC(=O)[C@H](C)NC1=O [FVIA, CKGTGKSCSRIAYNCCTGSCRSGKC-NH2] |  |  |  | much better recovery in MAP | curve inhibition without the horizontal curve shift | 11.5 ± 1.4 | better dissociation comparing MVIIA washout | elevate 50% withdrawal threshold in a dose dependent manner | exhibits analgesic effects on cold and warm allodynia | significantly decreased cumulative pain response rate | not effective in increasing withdrawal latency | not effective in increasing withdrawal latency | significantly decreased cumulative pain response rate in both the first phase and the second phase | analgesic effect in a dose-dependent manner | completely prevented pain behaviors in the second phase | exhibits analgesic effects on cold and warm allodynia | significantly decreased cumulative pain response rate | significantly decreased
